How the values were obtained:
human TTK = target: T1, human TTK (Homo sapiens, UniProt P33981); assay: TTK inhibition assay (indirect ELISA); type: biochemical; conditions: GST-TTK 0.68 nM, 16 μM ATP; read-out: IC50 Ranges TTK
T1 construct: amino terminal GST fusion of full length human TTK; purchased Invitrogen
T1 sequence (P33981 1-857): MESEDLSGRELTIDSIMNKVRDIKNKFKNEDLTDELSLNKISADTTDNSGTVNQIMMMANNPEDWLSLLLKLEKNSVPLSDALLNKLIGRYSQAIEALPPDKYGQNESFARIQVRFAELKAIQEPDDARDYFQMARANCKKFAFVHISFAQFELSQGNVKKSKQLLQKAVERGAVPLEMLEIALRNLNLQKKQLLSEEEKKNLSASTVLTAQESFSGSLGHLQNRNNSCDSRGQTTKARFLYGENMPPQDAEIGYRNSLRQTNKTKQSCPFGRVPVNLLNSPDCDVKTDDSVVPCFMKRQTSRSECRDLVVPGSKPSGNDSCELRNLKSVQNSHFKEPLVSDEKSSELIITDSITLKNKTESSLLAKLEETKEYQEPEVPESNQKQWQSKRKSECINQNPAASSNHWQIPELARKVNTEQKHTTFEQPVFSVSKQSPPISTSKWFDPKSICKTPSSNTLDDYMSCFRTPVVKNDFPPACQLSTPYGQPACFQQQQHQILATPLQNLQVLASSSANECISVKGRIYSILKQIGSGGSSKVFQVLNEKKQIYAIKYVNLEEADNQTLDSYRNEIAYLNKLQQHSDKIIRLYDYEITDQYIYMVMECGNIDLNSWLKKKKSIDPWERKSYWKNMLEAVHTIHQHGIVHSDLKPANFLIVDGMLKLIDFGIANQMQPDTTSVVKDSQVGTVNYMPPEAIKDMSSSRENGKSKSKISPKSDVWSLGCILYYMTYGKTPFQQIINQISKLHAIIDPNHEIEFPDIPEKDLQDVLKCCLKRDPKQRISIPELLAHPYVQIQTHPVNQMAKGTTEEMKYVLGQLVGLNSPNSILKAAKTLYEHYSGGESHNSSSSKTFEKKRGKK
Method: Active TTK was purchased from Invitrogen as an amino terminal GST fusion of full length human TTK.
TTK activity was measured using an indirect ELISA detection system. GST-TTK (0.68 nM) was incubated in the presence of 16 μM ATP (Sigma cat#A7699), 50 mM Hepes pH 7.2, 1 mM EGTA, 10 mM MgCl2, and 0.1% Pluronic in a 96 well microtitre plate pre-coated with amino terminal 6 histidine, sumo tagged TTK (amino acid residues 1-275). The reaction was allowed to proceed for 30 minutes, followed by 5 washes of the plate with Wash Buffer (phosphate buffered saline supplemented with 0.2% Tween 20), and incubation for 30 minutes with a 1:3000 dilution of primary antibody (Cell Signaling cat#9381). The plate was washed 5 times with Wash Buffer, incubated for 30 minutes in the presence of secondary antibody coupled to horse radish peroxidase (BioRad cat#1721019, 1:3000 concentration), washed an additional 5 times with Wash Buffer, and incubated in the presence of TMB substrate (Sigma cat#T0440). The colourimetric reaction was allowed to continue for 5 minutes, followed by addition of stop solution (0.5 N sulphuric acid), and quantified by detection at 450 nm with either a monochromatic or filter based plate reader (Molecular Devices M5 or Beckman DTX880, respectively).
Compounds were pre-incubated in the presence of enzyme for 5 minutes prior to addition of ATP and the activity remaining quantified using the above described activity assay. The % Inhibition of a compound was determined using the following formula; % Inhibition=100×(1−(experimental value−background value)/(high activity control−background value)). The IC50 value was determined using a non-linear 4 point logistic curve fit (XLfit4, IDBS) with the formula; (A+(B/(1+((x/C)̂D)))), where A=background value, B=range, C=inflection point, D=curve fit parameter.

[1] = tested on: HCT116 colon cancer cells; assay: Cell growth inhibition, Sulforhodamine B assay, HCT116; type: cell-based; conditions: Homo sapiens, HCT-116, 120 h, 5 days culture, SRB assay, read-out: Cell Line GI50 Range HCT116
[2] = tested on: PA-1 ovarian cancer cells; assay: Cell growth inhibition, Sulforhodamine B assay, PA-1; type: cell-based; conditions: 120 h, 5 days culture, SRB assay, read-out: Cell Line GI50 Range PA-1
Method: Breast cancer cells (MDA-MB-231, MDA-MB-468), colon cancer cells (HCT116, HT29) and ovarian cancer cells (PA-1, OVCAR-3) were seeded (1000 to 4000 in 80 μl per well depending on the cell growth rate) into 96 well plates 24 hours before compound overlay. Compounds were prepared as 10 mM stock solutions in 100% DMSO which were diluted with DMEM (Dulbecco's Modified Eagle's Medium) cell growth Medium (Invitrogen, Burlington, ON, Canada) containing 10% FBS (Fetal Bovine Serum) to concentrations ranging from 50 nM to 250 μM. Aliquots (20 μl) from each concentration were overlaid to 80 μl of the pre-seeded cells in the 96 well plates to make final concentrations of 10 nM to 50 μM. The cells were cultured for 5 days before the Sulforhodamine B assay (SRB) was performed to determine the compound's cell growth inhibition activity.
Sulforhodamine B (purchased from Sigma, Oakville, ON, Canada) is a water-soluble dye that binds to the basic amino acids of the cellular proteins. Thus, colorimetric measurement of the bound dye provides an estimate of the total protein mass that is related to the cell number. the cells are fixed in situ by gently aspirating off the culture media and adding 50 μl ice cold 10% Trichloroacetic Acid (TCA) per well and incubate at 4° C. for 30-60 min, The plates are washed with water five times and allowed to air dry for 5 min. Addition of 50 μl 0.4% (w/v) SRB solution in 1% (v/v) acetic acid to each well and incubatation for 30 min at RT completes the staining reaction. Following staining, plates are washed four times with 1% acetic acid to remove unbound dye and then allowed to air dry for 5 min. The stain is solubilized with 100 μl of 10 mM Tris pH 10.5 per well. Absorbance is read at 570 nm.
The percentage (%) of relative growth inhibition was calculated by comparing to DMSO treated only cells (100%). […] The GI50 was calculated using GraphPad PRISM software (GraphPad Software, Inc., San Diego, Calif., USA).

Aurora B = target: T2, Aurora B (Homo sapiens, UniProt Q96GD4); assay: Aurora B inhibition assay (Z-Lyte); type: biochemical; conditions: 28 nM Aurora B, 128 μM ATP; read-out: IC50 Ranges Aurora B
T2 construct: purchased Invitrogen PV3970
Method: Aurora B inhibition was determined using the Z-Lyte assay kit from Invitrogen. The assay was performed using the recommended manufacturer's instructions with 128 μM ATP and 28 nM Aurora B (Invitrogen cat #PV3970). The % inhibition values were determined according to the manufacturer's directions and IC50 values were obtained using a non-linear 4 point logistic curve fit (XLfit4, IDBS)

[3] = tested on: MDA-MB-468 breast cancer cells; assay: Cell growth inhibition, Sulforhodamine B assay, MDA-MB-468; type: cell-based; conditions: Homo sapiens, 120 h, 5 days culture, SRB assay, read-out: Cell Line GI50 Range MDA-MB-468
HT29 colon cancer cells = assay: Cell growth inhibition, Sulforhodamine B assay, HT29; type: cell-based; conditions: Homo sapiens, HT-29, 120 h, 5 days culture, SRB assay, read-out: Cell Line GI50 Range HT29
human PLK4 = target: T3, human PLK4 (Homo sapiens, UniProt O00444); assay: PLK4 inhibition assay (indirect ELISA); type: biochemical; conditions: GST-PLK4 4 nM, 15 μM ATP; read-out: IC50 Ranges PLK4
T3 construct: amino terminal GST fusion of residues 1-391 of human PLK4; made in house; host or cells: E. coli
T3 sequence (O00444 1-391): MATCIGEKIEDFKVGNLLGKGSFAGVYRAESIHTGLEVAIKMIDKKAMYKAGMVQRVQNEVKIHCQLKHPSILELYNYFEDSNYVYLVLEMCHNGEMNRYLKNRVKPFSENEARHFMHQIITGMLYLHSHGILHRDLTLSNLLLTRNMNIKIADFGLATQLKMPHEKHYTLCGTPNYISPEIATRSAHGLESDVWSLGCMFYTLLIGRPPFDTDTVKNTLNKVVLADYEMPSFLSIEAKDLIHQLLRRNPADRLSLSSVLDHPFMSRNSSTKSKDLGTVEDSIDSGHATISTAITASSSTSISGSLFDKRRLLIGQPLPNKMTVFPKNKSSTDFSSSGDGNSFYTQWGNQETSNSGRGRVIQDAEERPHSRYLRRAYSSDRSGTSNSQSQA
Outline: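 Compounds were tested either at a single 10 μM dose or across 10-point titrations (typically 0.5 to 0.001 μM), preincubated 15 min with 4 nM GST-PLK4 (human 1-391, dephosphorylated) before 15 μM ATP was added. MBP substrate phosphorylation over 30 min, pH 7.5 HEPES/MgCl2 buffer, read by HRP/TMB ELISA (450 nm). % inhibition vs. high-activity control; IC50 by logistic fit.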

T2 sequence (Q96GD4 whole entry): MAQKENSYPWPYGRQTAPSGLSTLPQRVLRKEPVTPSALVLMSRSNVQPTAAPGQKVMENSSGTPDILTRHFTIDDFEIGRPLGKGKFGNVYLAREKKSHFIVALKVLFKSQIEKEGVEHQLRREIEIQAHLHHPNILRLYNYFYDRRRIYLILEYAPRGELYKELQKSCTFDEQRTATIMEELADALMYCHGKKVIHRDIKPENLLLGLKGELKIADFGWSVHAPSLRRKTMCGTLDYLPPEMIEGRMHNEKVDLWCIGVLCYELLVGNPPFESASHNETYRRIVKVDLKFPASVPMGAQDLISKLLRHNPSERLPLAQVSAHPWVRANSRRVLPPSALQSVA

O=C(Nc1ccc2[nH]nc(-c3ccc(N4CCOCC4)cc3)c2c1)C(c1cccs1)N1CCCC1 (stereo not drawn) [Example A82, N-(3-(4-morpholinophenyl)-1H-indazol-5-yl)-2-(pyrrolidin-1-yl)-2-(thiophen-2-yl)acetamide]
≤ 5 µM: IC50 (human TTK) | GI50 [1] | GI50 [2] | IC50 (Aurora B) | GI50 [3] | GI50 (HT29 colon cancer cells) | IC50 (human PLK4)

O=C(Nc1ccc2[nH]nc(-c3ccc(N4CCC(CO)CC4)cc3)c2c1)C(c1ccsc1)N1CCCC1 (stereo not drawn) [Example A95, N-(3-(4-(4-(hydroxymethyl)piperidin-1-yl)phenyl)-1H-indazol-5-yl)-2-(pyrrolidin-1-yl)-2-(thiophen-3-yl)acetamide]
≤ 5 µM: IC50 (human TTK) | GI50 [1] | GI50 [2] | IC50 (Aurora B) | GI50 [3] | GI50 (HT29 colon cancer cells) | IC50 (human PLK4)

O=C(Nc1ccc2[nH]nc(-c3ccc(N4CCC(O)CC4)cc3)c2c1)C(c1ccsc1)N1CCCCC1 (stereo not drawn) [Example A83, N-(3-(4-(4-hydroxypiperidin-1-yl)phenyl)-1H-indazol-5-yl)-2-(piperidin-1-yl)-2-(thiophen-3-yl)acetamide]
≤ 5 µM: IC50 (human TTK) | GI50 [1] | GI50 [2] | IC50 (Aurora B) | GI50 [3] | GI50 (HT29 colon cancer cells) | IC50 (human PLK4)

CC(C)(O)C1CCN(c2ccc(-c3n[nH]c4ccc(NC(=O)C(c5ccsc5)N5CCCC5)cc34)cc2)CC1 (stereo not drawn) [Example A111, N-(3-(4-(4-(2-hydroxypropan-2-yl)piperidin-1-yl)phenyl)-1H-indazol-5-yl)-2-(pyrrolidin-1-yl)-2-(thiophen-3-yl)acetamide]
≤ 5 µM: IC50 (human TTK) | GI50 [1] | GI50 [2] | IC50 (Aurora B) | GI50 [3] | GI50 (HT29 colon cancer cells) | IC50 (human PLK4)

O=C(N[C@H](c1ccccn1)C1CC1)c1ccc2[nH]nc(-c3ccc(OC4CCN(C5COC5)CC4)cc3)c2c1 [Example A197, (S)—N-(cyclopropyl(pyridin-2-yl)methyl)-3-(4-((1-(oxetan-3-yl)piperidin-4-yl)oxy)phenyl)-1H-indazole-5-carboxamide]
≤ 5 µM: IC50 (human TTK) | GI50 [1] | GI50 [2] | IC50 (Aurora B) | GI50 [3] | IC50 (human PLK4)

COC(C(=O)Nc1ccc2[nH]nc(-c3ccc(N4CCC(O)CC4)cc3)c2c1)c1ccsc1 (stereo not drawn) [Example A87, N-(3-(4-(4-hydroxypiperidin-1-yl)phenyl)-1H-indazol-5-yl)-2-methoxy-2-(thiophen-3-yl)acetamide]
≤ 5 µM: IC50 (human TTK) | GI50 [1] | GI50 [2] | GI50 [3] | GI50 (HT29 colon cancer cells) | IC50 (human PLK4)

O=C(Nc1ccc2[nH]nc(-c3ccc(N4CC(O)C4)cc3)c2c1)C(c1ccsc1)N1CCCC1 (stereo not drawn) [Example A120, N-(3-(4-(3-Hydroxyazetidin-1-yl)phenyl)-1H-indazol-5-yl)-2-(pyrrolidin-1-yl)-2-(thiophen-3-yl)acetamide]
≤ 5 µM: IC50 (human TTK) | GI50 [1] | GI50 [2] | IC50 (Aurora B) | GI50 [3] | GI50 (HT29 colon cancer cells) | IC50 (human PLK4)

O=CN1CCC(Oc2ccc(-c3n[nH]c4ccc(C(=O)N[C@@H](c5ccccn5)C5CC5)cc34)cc2)CC1 [Example A203, (R)—N-(cyclopropyl(pyridin-2-yl)methyl)-3-(4-((1-formylpiperidin-4-yl)oxy)phenyl)-1H-indazole-5-carboxamide]
≤ 5 µM: IC50 (human TTK) | GI50 [1] | GI50 [2] | IC50 (Aurora B) | GI50 [3] | IC50 (human PLK4)

O=C(NC(c1ccccc1)C1CC1)c1ccc2[nH]nc(-c3ccc(OC4CCN(CCF)CC4)cc3)c2c1 (stereo not drawn) [Example A122, N-(cyclopropyl(phenyl)methyl)-3-(4-((1-(2-fluoroethyl)piperidin-4-yl)oxy)phenyl)-1H-indazole-5-carboxamide]
≤ 5 µM: IC50 (human TTK) | GI50 [1] | GI50 [2] | GI50 [3] | GI50 (HT29 colon cancer cells) | IC50 (human PLK4)

Cc1ccccc1C(NC(=O)c1ccc2[nH]nc(-c3ccc(N4CCOCC4)cc3)c2c1)C1CC1 (stereo not drawn) [Example A119, N-(cyclopropyl(o-tolyl)methyl)-3-(4-morpholinophenyl)-1H-indazole-5-carboxamide]
≤ 5 µM: IC50 (human TTK) | GI50 [1] | GI50 [2] | IC50 (Aurora B) | GI50 [3] | GI50 (HT29 colon cancer cells) | IC50 (human PLK4)

O=CN1CCC(Oc2ccc(-c3n[nH]c4ccc(C(=O)N[C@H](c5ccccn5)C5CC5)cc34)cc2)CC1 [Example A204, (S)—N-(cyclopropyl(pyridin-2-yl)methyl)-3-(4-((1-formylpiperidin-4-yl)oxy)phenyl)-1H-indazole-5-carboxamide]
≤ 5 µM: IC50 (human TTK) | GI50 [1] | GI50 [2] | IC50 (Aurora B) | GI50 [3] | IC50 (human PLK4)

O=C(NC(c1ccsc1)C1CCC1)c1ccc2[nH]nc(-c3ccc(N4CCOCC4)cc3)c2c1 (stereo not drawn) [Example A123, N-(cyclobutyl(thiophen-3-yl)methyl)-3-(4-morpholinophenyl)-1H-indazole-5-carboxamide]
≤ 5 µM: IC50 (human TTK) | GI50 [1] | GI50 [2] | IC50 (Aurora B) | GI50 [3] | IC50 (human PLK4)

CC(C)(O)C1CCN(c2ccc(-c3n[nH]c4ccc(NC(=O)C(c5ccsc5)N5CCC5)cc34)cc2)CC1 (stereo not drawn) [Example A201, 2-(azetidin-1-yl)-N-(3-(4-(4-(2-hydroxypropan-2-yl)piperidin-1-yl)phenyl)-1H-indazol-5-yl)-2-(thiophen-3-yl)acetamide]
≤ 5 µM: IC50 (human TTK) | GI50 [1] | GI50 [2] | IC50 (Aurora B) | GI50 [3] | IC50 (human PLK4)

From patent publication US20140051679A1, “KINASE INHIBITORS AND METHOD OF TREATING CANCER WITH SAME” (UNIVERISTY HEALTH NETWORKS, priority 2011, published 2014)
